Source: article PMC11079024, “Identification of a family of species-selective complex I inhibitors as potential anthelmintics” (Nature Communications, 2024)
Where two headings read alike, the source gives them in different places.

Key:
[1] = molecular target: C. elegans (N2) complex I (NADH:ubiquinone oxidoreductase) (Caenorhabditis elegans, UniProt P24887+Q93873+Q94360); experiment: biochemical; assay type: biochemical; conditions: for activity at 0.0001 µM / activity at 0.0005 µM / activity at 0.001 µM / activity at 0.0025 µM / activity at 0.005 µM / activity at 0.013 µM / activity at 0.025 µM / activity at 0.063 µM / activity at 0.125 µM / activity at 0.313 µM / activity at 0.625 µM / activity at 1.5 µM / activity at 3 µM / activity at 15 µM / activity at 37.5 µM / activity at 75 µM: read-out: C. elegans mitochondrial complex I activity; for Log IC50 C. elegans complex I: log10 of IC50 in µM, C. elegans mitochondria
Summary of the method: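 Mitochondria, 0.2 mg/mL protein, freeze-thawed three times, assayed in 25 mM KPi pH 7.5 with BSA, 80 μM NADH, 60 μM decylubiquinone, 160 μM DCIP, antimycin A and KCN. Rate from initial linear slope of A600 over 15 min. % of solvent control.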

[2] = molecular target: B. taurus (heart) complex I (Bos taurus, UniProt P03887+P17694+P42026); experiment: biochemical; assay type: biochemical; conditions: for IC50: read-out: B. taurus Complex I IC50; for activity at 0.0001 µM / activity at 0.0005 µM / activity at 0.001 µM / activity at 0.0025 µM / activity at 0.005 µM / activity at 0.013 µM / activity at 0.025 µM / activity at 0.063 µM / activity at 0.125 µM / activity at 0.313 µM / activity at 0.625 µM / activity at 1.5 µM / activity at 3 µM / activity at 15 µM / activity at 37.5 µM / activity at 75 µM: read-out: B. taurus mitochondrial complex I activity; for Log IC50 B. taurus complex I: log10 of IC50 in µM, B. taurus mitochondria
Summary of the method: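 Complex I activity followed as DCIP reduction (600 nm, 30 s reads, 15 min) with 80 μM NADH and 60 μM decylubiquinone in 25 mM KPi pH 7.5 containing 2 μM antimycin A and 2 mM KCN. Freeze-thawed mouse or bovine heart mitochondria at 0.2 mg/mL; initial-rate percent of solvent control, single-point 100 μM or dose-response.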

[3] = in vitro complex I dose response on C. elegans mitochondria, average of at least two biological replicates, fit in R (DRC), read-out: IC50 C. elegans complex I
[4] = wild-type (N2) mitochondria, read-out: C. elegans Complex I IC50
[5] = wild-type C. elegans mitochondria, estimated from fitted dose-response curves, read-out: C. elegans Complex I IC50
[6] = B. taurus heart mitochondria, estimated from fitted dose-response curves
[7] = wild-type C. elegans mitochondria, mean of replicates, read-out: percent (%) in vitro complex I activity relative to solvent control
[8] = wild-type C. elegans mitochondria, single replicate, read-out: percent (%) in vitro complex I activity relative to solvent control
[9] = B. taurus (heart) mitochondria, mean of replicates, read-out: percent (%) in vitro complex I activity relative to solvent control
[10] = B. taurus (heart) mitochondria, single replicate, read-out: percent (%) in vitro complex I activity relative to solvent control

C. elegans (N2) complex I (NADH:ubiquinone oxidoreductase), sequence (Q94360 17-199): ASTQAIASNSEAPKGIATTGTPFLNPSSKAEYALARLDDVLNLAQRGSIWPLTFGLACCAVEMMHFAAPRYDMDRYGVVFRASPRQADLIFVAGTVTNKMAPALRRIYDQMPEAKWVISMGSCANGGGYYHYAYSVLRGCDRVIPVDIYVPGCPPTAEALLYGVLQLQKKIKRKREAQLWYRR
C. elegans (N2) complex I (NADH:ubiquinone oxidoreductase), sequence (P24887 whole entry): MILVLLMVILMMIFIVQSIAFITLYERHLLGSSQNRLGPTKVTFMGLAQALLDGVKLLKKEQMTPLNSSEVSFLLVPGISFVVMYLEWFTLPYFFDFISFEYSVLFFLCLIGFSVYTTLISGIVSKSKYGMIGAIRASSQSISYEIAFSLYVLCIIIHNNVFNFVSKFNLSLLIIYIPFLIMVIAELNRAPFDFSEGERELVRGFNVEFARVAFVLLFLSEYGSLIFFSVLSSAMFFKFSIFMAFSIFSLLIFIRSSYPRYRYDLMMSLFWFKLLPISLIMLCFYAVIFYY
C. elegans (N2) complex I (NADH:ubiquinone oxidoreductase), sequence (Q93873 31-482): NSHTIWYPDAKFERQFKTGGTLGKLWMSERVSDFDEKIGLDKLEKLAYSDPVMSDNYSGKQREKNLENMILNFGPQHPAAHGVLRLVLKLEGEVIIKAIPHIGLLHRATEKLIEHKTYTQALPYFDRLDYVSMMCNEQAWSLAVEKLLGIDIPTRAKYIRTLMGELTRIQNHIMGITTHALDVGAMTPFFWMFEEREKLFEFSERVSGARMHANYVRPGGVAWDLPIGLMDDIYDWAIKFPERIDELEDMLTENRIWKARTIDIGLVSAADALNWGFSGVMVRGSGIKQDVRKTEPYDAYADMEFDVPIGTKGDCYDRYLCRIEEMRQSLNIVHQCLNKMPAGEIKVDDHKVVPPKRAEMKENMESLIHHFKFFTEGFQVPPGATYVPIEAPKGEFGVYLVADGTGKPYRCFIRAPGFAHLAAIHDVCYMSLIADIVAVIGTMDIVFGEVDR
B. taurus (heart) complex I, sequence (P03887 whole entry): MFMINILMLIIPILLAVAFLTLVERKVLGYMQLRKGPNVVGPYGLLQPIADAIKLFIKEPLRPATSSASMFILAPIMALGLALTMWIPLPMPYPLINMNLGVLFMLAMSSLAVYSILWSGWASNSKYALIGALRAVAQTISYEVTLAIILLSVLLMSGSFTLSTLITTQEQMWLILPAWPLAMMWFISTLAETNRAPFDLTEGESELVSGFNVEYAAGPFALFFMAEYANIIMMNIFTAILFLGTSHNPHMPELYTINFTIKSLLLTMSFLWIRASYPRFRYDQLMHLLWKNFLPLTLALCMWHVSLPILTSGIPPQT
B. taurus (heart) complex I, sequence (P17694 34-463): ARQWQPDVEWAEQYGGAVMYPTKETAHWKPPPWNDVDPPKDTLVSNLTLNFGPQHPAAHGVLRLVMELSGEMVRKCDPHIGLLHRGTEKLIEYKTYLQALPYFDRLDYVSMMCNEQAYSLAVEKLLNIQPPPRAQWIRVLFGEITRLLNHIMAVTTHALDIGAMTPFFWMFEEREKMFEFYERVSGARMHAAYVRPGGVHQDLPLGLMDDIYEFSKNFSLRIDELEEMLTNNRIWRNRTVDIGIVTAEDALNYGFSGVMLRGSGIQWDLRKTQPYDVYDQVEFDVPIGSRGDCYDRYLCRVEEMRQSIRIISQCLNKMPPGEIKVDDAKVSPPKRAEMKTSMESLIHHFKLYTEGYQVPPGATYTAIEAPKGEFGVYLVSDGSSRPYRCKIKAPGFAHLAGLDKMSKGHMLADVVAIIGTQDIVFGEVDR
B. taurus (heart) complex I, sequence (P42026 38-216): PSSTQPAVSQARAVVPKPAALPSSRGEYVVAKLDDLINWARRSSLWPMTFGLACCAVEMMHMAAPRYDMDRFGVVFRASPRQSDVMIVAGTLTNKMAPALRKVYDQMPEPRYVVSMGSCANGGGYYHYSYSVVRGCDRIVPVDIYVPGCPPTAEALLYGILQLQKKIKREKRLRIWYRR

FC(F)(F)c1cccc(OCCCCn2cnc3ccccc32)c1 [Compound 7925004]
activity at 0.0001 µM [1]: 115% | activity at 0.0005 µM [1]: 105% | activity at 0.001 µM [1]: 110% | activity at 0.0025 µM [1]: 110% | activity at 0.005 µM [1]: 105% | activity at 0.013 µM [1]: 103% | activity at 0.025 µM [1]: 105% | activity at 0.063 µM [1]: 104% | activity at 0.125 µM [1]: 98% | activity at 0.313 µM [1]: 81.9% | activity at 0.625 µM [1]: 91.2% | activity at 1.5 µM [1]: 67.6% | activity at 3 µM [1]: 48.6% | activity at 15 µM [1]: 22.1% | activity at 37.5 µM [1]: 13.1% | activity at 75 µM [1]: 1.4% | IC50 [1, 3]: 2060 nM | Log IC50 C. elegans complex I [1]: 0.31 µM | IC50 [1, 4]: 2060 nM | IC50 [1, 5]: 2060 nM | IC50 [2, 6]: 13000 nM | activity at 0.0001 µM [2]: 92.5% | activity at 0.0005 µM [2]: 92.1% | activity at 0.001 µM [2]: 90.6% | activity at 0.0025 µM [2]: 88.9% | activity at 0.005 µM [2]: 89.8% | activity at 0.013 µM [2]: 84.7% | activity at 0.025 µM [2]: 87.1% | activity at 0.063 µM [2]: 85.1% | activity at 0.125 µM [2]: 81.8% | activity at 0.313 µM [2]: 83.3% | activity at 0.625 µM [2]: 88.4% | activity at 1.5 µM [2]: 81.4% | activity at 3 µM [2]: 76.3% | activity at 15 µM [2]: 35.9% | activity at 37.5 µM [2]: 9.66% | activity at 75 µM [2]: 1.95% | Log IC50 B. taurus complex I [2]: 1.11 µM

Cc1ccc(OCCn2cnc3ccccc32)c(C)c1 [Compound 7706808]
activity at 0.0001 µM [1]: 101% | activity at 0.0005 µM [1]: 107% | activity at 0.001 µM [1]: 103% | activity at 0.0025 µM [1]: 109% | activity at 0.005 µM [1]: 101% | activity at 0.013 µM [1]: 107% | activity at 0.025 µM [1]: 105% | activity at 0.063 µM [1]: 101% | activity at 0.125 µM [1]: 94.3% | activity at 0.313 µM [1]: 97.4% | activity at 0.625 µM [1]: 70.9% | activity at 1.5 µM [1]: 55.5% | activity at 3 µM [1]: 44.2% | activity at 15 µM [1]: 16.3% | activity at 37.5 µM [1]: 13.2% | activity at 75 µM [1]: 13.5% | IC50 [1, 3]: 1450 nM | Log IC50 C. elegans complex I [1]: 0.16 µM | IC50 [1, 5]: 1450 nM | IC50 [2, 6]: 8480 nM | activity at 0.0001 µM [2]: 97.5% | activity at 0.0005 µM [2]: 94.8% | activity at 0.001 µM [2]: 99.1% | activity at 0.0025 µM [2]: 97% | activity at 0.005 µM [2]: 95.6% | activity at 0.013 µM [2]: 97.8% | activity at 0.025 µM [2]: 90.5% | activity at 0.063 µM [2]: 96% | activity at 0.125 µM [2]: 93.5% | activity at 0.313 µM [2]: 91.4% | activity at 0.625 µM [2]: 82.8% | activity at 1.5 µM [2]: 81.2% | activity at 3 µM [2]: 69.4% | activity at 15 µM [2]: 30.6% | activity at 37.5 µM [2]: 11.4% | activity at 75 µM [2]: 6.37% | Log IC50 B. taurus complex I [2]: 0.93 µM

COc1ccc(Cc2nccc3cc(OC)c(OC)cc23)cc1OC [Papaverine, reference compound]
remaining activity at 0.125 µM ([1]; 0.125 µM, wild-type C. elegans mitochondria, mean of replicates, read-out: percent (%) in vitro complex I activity relative to solvent control): 95.7% | remaining activity at 0.313 µM [1, 7]: 87.5% | remaining activity at 0.313 µM [1, 8]: 85.7% | remaining activity at 0.625 µM [1, 7]: 100% | remaining activity at 0.625 µM [1, 8]: 100% | remaining activity at 1.5 µM [1, 7]: 81.8% | remaining activity at 1.5 µM [1, 8]: 81.5% | remaining activity at 3 µM [1, 7]: 63.8% | remaining activity at 3 µM [1, 8]: 67.5% | remaining activity at 15 µM ([1]; 15 µM, wild-type C. elegans mitochondria, mean of replicates, read-out: percent (%) in vitro complex I activity relative to solvent control): 22.1% | remaining activity at 37.5 µM ([1]; 37.5 µM, wild-type C. elegans mitochondria, mean of replicates, read-out: percent (%) in vitro complex I activity relative to solvent control): 6.94% | remaining activity at 75 µM ([1]; 75 µM, wild-type C. elegans mitochondria, mean of replicates, read-out: percent (%) in vitro complex I activity relative to solvent control): 7.49% | IC50 [1, 4]: 4340 nM | remaining activity at 0.125 µM [2, 9]: 93.4% | remaining activity at 0.125 µM [2, 10]: 87.6% | remaining activity at 0.313 µM [2, 9]: 93.3% | remaining activity at 0.313 µM [2, 10]: 92.3% | remaining activity at 0.625 µM [2, 9]: 91.6% | remaining activity at 0.625 µM [2, 10]: 89.2% | remaining activity at 1.5 µM [2, 9]: 83.3% | remaining activity at 1.5 µM [2, 10]: 88.4% | remaining activity at 3 µM ([2]; 3 µM, B. taurus (heart) mitochondria, mean of replicates, read-out: percent (%) in vitro complex I activity relative to solvent control): 76.1% | remaining activity at 15 µM ([2]; 15 µM, B. taurus (heart) mitochondria, mean of replicates, read-out: percent (%) in vitro complex I activity relative to solvent control): 30.1% | remaining activity at 37.5 µM ([2]; 37.5 µM, B. taurus (heart) mitochondria, mean of replicates, read-out: percent (%) in vitro complex I activity relative to solvent control): 12.9% | remaining activity at 75 µM [2, 9]: 6.58% | remaining activity at 75 µM [2, 10]: 9.15% | IC50 ([2]; heart mitochondria): 8500 nM

Clc1ccc(SCCCCn2cnc3ccccc32)cc1 [Compound 7925515]
activity at 0.0001 µM [1]: 90.8% | activity at 0.0005 µM [1]: 89.5% | activity at 0.001 µM [1]: 93.5% | activity at 0.0025 µM [1]: 93.3% | activity at 0.005 µM [1]: 91% | activity at 0.013 µM [1]: 90.5% | activity at 0.025 µM [1]: 86.2% | activity at 0.063 µM [1]: 83.9% | activity at 0.125 µM [1]: 76.1% | activity at 0.313 µM [1]: 69.1% | activity at 0.625 µM [1]: 60.1% | activity at 1.5 µM [1]: 39.1% | activity at 3 µM [1]: 22% | activity at 15 µM [1]: 10.5% | activity at 37.5 µM [1]: 7.84% | activity at 75 µM [1]: 5.86% | IC50 [1, 3]: 950 nM | Log IC50 C. elegans complex I [1]: -0.0223 µM | IC50 [1, 4]: 950 nM | IC50 [1, 5]: 950 nM | IC50 [2, 6]: 8020 nM | activity at 0.0001 µM [2]: 102% | activity at 0.0005 µM [2]: 97.1% | activity at 0.001 µM [2]: 96.1% | activity at 0.0025 µM [2]: 95.6% | activity at 0.005 µM [2]: 88.9% | activity at 0.013 µM [2]: 95.1% | activity at 0.025 µM [2]: 90.6% | activity at 0.063 µM [2]: 95.8% | activity at 0.125 µM [2]: 98.1% | activity at 0.313 µM [2]: 94.7% | activity at 0.625 µM [2]: 97.6% | activity at 1.5 µM [2]: 86.3% | activity at 3 µM [2]: 74.8% | activity at 15 µM [2]: 26.8% | activity at 37.5 µM [2]: 5.44% | activity at 75 µM [2]: 2.46% | Log IC50 B. taurus complex I [2]: 0.90 µM
